Columns and labels:
Format in all cases: in vitro ADME
CYP3A4 = CYP3A4 (Homo sapiens (Human), UniProt P08684); experiment: CYP3A4(MDZ) MBI test; conditions: pooled human liver microsomes, midazolam 1-hydroxylation, preincubation 0 or 30 minutes
Procedure: CYP3A4(MDZ) MBI test is a test of investigating mechanism based inhibition (MBI) potential on CYP3A4 inhibition of a compound. CYP3A4 inhibition is evaluated using 1-hydroxylation reaction of midazolam (MDZ) by pooled human liver microsomes as a marker reaction.
The reaction conditions were as follows: substrate, 10 μmol/L MDZ; pre-reaction time, 0 or 30 minutes; substrate reaction time, 2 minutes; reaction temperature, 37° C.; protein content of pooled human liver microsomes, 0.5 mg/mL at pre-reaction time, […] (at 10-fold dilution) at reaction time; concentrations of the compound of the present invention, 1, 5, 10, 20 μmol/L (4 points).
Pooled human liver microsomes in a K-Pi buffer (pH 7.4) and a compound of the present invention solution as a pre-reaction solution were added to a 96-well plate at the composition of the pre-reaction. A part of pre-reaction solution was transferred to another 96-well plate, and diluted 10-fold by a substrate in a K-Pi buffer. NADPH as a co-factor was added to initiate the marker reaction (without preincubation). After a predetermined time of the marker reaction, methanol/acetonitrile=1/1 (v/v) solution was added in order to terminate the marker reaction. On the other hand, NADPH was also added to a remaining pre-reaction solution in order to initiate a pre-reaction (with preincubation). After a predetermined time of a pre-reaction, a part was transferred to another 96-well plate, and diluted 10-fold by a substrate in a K-Pi buffer in order to initiate the marker reaction. After a predetermined time of the marker reaction, methanol/acetonitrile=1/1 (v/v) solution is added in order to terminate the marker reaction. After centrifuged at 3000 rpm for 15 minutes, 1-hydroxymidazolam in the supernatant is quantified by LC/MS/MS.
The sample adding DMSO to a reaction system instead of compound of the present invention solution was adopted as a control (100%) because DMSO is used as a solvent to dissolve a compound of the present invention. Remaining activity (%) was calculated at each concentration of the compound of the present invention added as the solution, and IC50 value was calculated by reverse-presumption using a logistic model with a concentration and an inhibition rate. Shifted IC value was calculated as “IC value without preincubation (0 minutes)/IC value with preincubation (30 minutes)″. When a shifted IC value was 1.5 or more, this was defined as positive. When a shifted IC value was less than 1.1, this was defined as negative.

Metabolic stability test = conditions: human liver microsomes, 37° C., NADPH
Procedure: Using a commercially available pooled human liver microsomes, a compound of the present invention was reacted for a constant time, a remaining rate was calculated by comparing a reacted sample and an unreacted sample, thereby, a degree of metabolism in liver was assessed.
A reaction was performed (oxidative reaction) at 37° C. for 0 minute or 30 minutes in the presence of 1 mmol/L NADPH in 0.2 mL of a buffer (50 mmol/L Tris-HCl pH 7.4, 150 mmol/L potassium chloride, 10 mmol/L magnesium chloride) containing 0.5 mg protein/mL of human liver microsomes. After the reaction, 50 μL of the reaction solution was added to 100 μL of a methanol/acetonitrile=1/1 (v/v), mixed and centrifuged at 3000 rpm for 15 minutes. The compound of the present invention in the supernatant was quantified by LC/MS/MS or solid phase extraction (SPE)MS, and a remaining amount of the compound of the present invention after the reaction was calculated, letting a compound amount at 0 minute reaction time to be 100%.

[1] = target: P-gp (MDR1 expressing LLC-PK1 cells) (Homo sapiens (Human), UniProt P08183); experiment: P-gp substrate test; conditions: MDR1/LLC-PK1 versus LLC-PK1
Sequence of P-gp (MDR1 expressing LLC-PK1 cells) (P08183 whole entry): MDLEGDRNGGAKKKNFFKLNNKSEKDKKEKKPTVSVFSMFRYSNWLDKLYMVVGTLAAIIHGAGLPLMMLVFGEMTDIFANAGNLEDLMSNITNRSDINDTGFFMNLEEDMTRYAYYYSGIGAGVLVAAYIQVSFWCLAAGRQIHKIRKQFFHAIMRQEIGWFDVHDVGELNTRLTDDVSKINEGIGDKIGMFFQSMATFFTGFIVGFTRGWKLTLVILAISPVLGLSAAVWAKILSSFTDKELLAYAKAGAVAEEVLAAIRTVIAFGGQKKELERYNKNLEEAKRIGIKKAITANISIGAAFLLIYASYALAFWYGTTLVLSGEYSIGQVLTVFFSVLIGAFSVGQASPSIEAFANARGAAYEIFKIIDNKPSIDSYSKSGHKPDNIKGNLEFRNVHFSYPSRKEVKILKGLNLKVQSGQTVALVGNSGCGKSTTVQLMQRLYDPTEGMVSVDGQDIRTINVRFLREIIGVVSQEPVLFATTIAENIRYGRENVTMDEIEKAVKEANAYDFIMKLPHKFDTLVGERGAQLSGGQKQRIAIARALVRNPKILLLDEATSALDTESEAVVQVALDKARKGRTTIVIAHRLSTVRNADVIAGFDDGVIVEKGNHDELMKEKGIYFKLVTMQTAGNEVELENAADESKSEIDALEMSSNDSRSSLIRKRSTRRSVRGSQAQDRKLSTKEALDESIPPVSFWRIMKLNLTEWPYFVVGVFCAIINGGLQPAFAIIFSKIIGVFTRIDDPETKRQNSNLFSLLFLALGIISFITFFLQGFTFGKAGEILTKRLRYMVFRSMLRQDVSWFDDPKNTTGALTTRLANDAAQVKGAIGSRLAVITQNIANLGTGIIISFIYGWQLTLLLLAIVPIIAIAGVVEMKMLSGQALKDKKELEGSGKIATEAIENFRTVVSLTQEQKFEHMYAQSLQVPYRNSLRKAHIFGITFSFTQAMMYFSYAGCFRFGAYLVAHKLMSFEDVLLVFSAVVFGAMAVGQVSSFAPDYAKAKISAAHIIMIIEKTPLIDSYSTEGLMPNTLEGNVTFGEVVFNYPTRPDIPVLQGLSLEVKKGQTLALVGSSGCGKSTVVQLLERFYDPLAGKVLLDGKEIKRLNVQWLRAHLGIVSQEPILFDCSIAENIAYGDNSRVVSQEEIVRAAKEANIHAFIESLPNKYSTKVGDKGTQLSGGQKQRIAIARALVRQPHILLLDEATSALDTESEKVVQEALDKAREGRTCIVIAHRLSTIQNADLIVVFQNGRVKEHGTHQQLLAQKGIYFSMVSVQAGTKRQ
Procedure: 1. MDR1 expressing LLC-PK1 cells and its parent cells were routinely cultured in Medium A (Medium 199 (Invitrogen) supplemented with 10% FBS (Invitrogen), gentamycin (0.05 mg/mL, Invitrogen) and hygromycin B (100 μg/mL, Invitrogen)) at 37° C. under 5% CO2/[…] gasses. For the transport experiments, these cells were seeded on Transwell (Registered trademark) insert (96-well, pore size: 0.4 μm, Coaster) at a density of 1.4×10^4 cells/insert and added Medium B (Medium 199 supplemented with 10% FBS and gentamycin at 0.05 mg/mL) to the feeder tray. These cells were incubated in a CO2 incubator (5% CO2/[…] gasses, 37° C.) and replace apical and basolateral culture medium every 48-72 hr after seeding. These cells were used between 4 and 6 days after seeding. 2. The medium in the culture insert seeded with MDR1 expressing cells or parent cells were removed by aspiration and rinsed by HBSS. The apical side (140 μL) or basolateral side (175 μL) was replaced with transport buffer containing reference substrates and the present invention and then an aliquot (50 μL) of transport buffer in the donor side was collected to estimate initial concentration of reference substrate and the present invention. After incubation for designed time at 37° C., an aliquot (50 μL) of transport buffer in the donor and receiver side were collected. Assay was performed by duplicate or triplicate. 3. Reference substrate and the present invention in the aliquot was quantified by LC/MS/MS.
Permeated amounts across monolayers of MDR1 expressing and parent cells were determined, and permeation coefficients (Pe) were calculated using Excel 2003 from the following equitation: Pe (cm/sec)=Permeated amount (pmol)/area of cell membrane (cm^2)/initial concentration (nM)/incubation time (sec) Where, permeated amount was calculated from permeation concentration (nM, concentration of the receiver side) of the substance after incubation for the defined time (sec) multiplied by volume (mL) and area of cell membrane was used 0.1433 (cm2).
The efflux ratio was calculated using the following equation: Efflux Ratio=Basolateral-to-Apical Pe/Apical-to-Basolateral Pe The net flux was calculated using the following equation: Net flux=Efflux Ratio in MDR1 expressing cells/Efflux Ratio in parent cells

Sequence of CYP3A4 (P08684 whole entry): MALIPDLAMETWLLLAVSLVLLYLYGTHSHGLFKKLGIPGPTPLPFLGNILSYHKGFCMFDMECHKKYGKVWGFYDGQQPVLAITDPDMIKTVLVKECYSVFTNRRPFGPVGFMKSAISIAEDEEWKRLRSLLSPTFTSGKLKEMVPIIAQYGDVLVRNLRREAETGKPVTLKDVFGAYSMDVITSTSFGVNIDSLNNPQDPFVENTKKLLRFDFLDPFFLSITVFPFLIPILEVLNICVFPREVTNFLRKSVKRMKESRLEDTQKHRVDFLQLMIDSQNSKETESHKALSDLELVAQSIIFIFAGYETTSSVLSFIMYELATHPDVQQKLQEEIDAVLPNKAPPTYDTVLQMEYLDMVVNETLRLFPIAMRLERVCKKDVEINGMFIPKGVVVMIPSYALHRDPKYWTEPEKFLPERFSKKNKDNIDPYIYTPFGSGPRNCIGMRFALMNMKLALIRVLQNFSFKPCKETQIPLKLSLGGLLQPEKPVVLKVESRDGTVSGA

| SMILES | Remaining rate(%) at 30 min (Metabolic stability test) [%] | P-gp ER ratio [1] | MBI MDZ (CYP3A4) |
| --- | --- | --- | --- |
| NC1=N[C@](CF)(c2cc(NC(=O)c3cnc(OCF)cn3)ccc2F)[C@H]2COCC[C@H]2O1 [Compound I-007] | 107 | 5.5 | Negative (When a shifted IC value was less than 1.1, this was defined as negative) |
| C[C@@H]1C[C@H]2OC(N)=N[C@](CF)(c3cc(NC(=O)c4cnc(OCF)cn4)ccc3F)[C@H]2CO1 [Compound I-008] | 94.4 | 6.2 | Negative (When a shifted IC value was less than 1.1, this was defined as negative) |
| NC1=N[C@](CF)(c2cc(NC(=O)c3cnc(-n4cncn4)cn3)ccc2F)[C@H]2COCC[C@H]2O1 [Compound I-047] | 61.6 | 4.7 | Negative (When a shifted IC value was less than 1.1, this was defined as negative) |
| C[C@@H]1C[C@H]2OC(N)=N[C@](CF)(c3cc(NC(=O)c4cnc(OCF)cn4)ccc3Cl)[C@H]2CO1 [Compound I-065] | 79.6 | 5.7 | Negative (When a shifted IC value was less than 1.1, this was defined as negative) |

More lines, main results first:

| Remaining rate(%) at 30 min (Metabolic stability test) [%] | P-gp ER ratio [1] | SMILES | MBI MDZ (CYP3A4) |
| --- | --- | --- | --- |
| 91.4 | 6.1 | COc1cnc(C(=O)Nc2ccc(F)c([C@@]3(CF)N=C(N)O[C@@H]4CCOC[C@@H]43)c2)cn1 [Compound I-067] | Negative (When a shifted IC value was less than 1.1, this was defined as negative) |
| 91.7 | 6.2 | NC1=N[C@](CF)(c2cc(NC(=O)c3cnc(OC(F)F)cn3)ccc2F)[C@H]2COCC[C@H]2O1 [Compound I-076] | Negative (When a shifted IC value was less than 1.1, this was defined as negative) |
| 87.9 | 7.1 | NC1=N[C@](CF)(c2cc(NC(=O)c3ccc(C(F)(F)F)cn3)ccc2F)[C@H]2COCC[C@H]2O1 [Compound I-105] | Negative (When a shifted IC value was less than 1.1, this was defined as negative) |
